Our source for the inhibition and melting point values is patent US20070249620A1, “Urea Derivative” (priority 2004, published 2007).

For one series, the target named is T1, mouse DGAT1 (Mus musculus, UniProt Q9Z2A7).
T1 construct: made in house; host or cells: insect cells (High Five, Sf9, Sf21, etc.), baculovirus expression system (Invitrogen)
T1 sequence (Q9Z2A7 1-498): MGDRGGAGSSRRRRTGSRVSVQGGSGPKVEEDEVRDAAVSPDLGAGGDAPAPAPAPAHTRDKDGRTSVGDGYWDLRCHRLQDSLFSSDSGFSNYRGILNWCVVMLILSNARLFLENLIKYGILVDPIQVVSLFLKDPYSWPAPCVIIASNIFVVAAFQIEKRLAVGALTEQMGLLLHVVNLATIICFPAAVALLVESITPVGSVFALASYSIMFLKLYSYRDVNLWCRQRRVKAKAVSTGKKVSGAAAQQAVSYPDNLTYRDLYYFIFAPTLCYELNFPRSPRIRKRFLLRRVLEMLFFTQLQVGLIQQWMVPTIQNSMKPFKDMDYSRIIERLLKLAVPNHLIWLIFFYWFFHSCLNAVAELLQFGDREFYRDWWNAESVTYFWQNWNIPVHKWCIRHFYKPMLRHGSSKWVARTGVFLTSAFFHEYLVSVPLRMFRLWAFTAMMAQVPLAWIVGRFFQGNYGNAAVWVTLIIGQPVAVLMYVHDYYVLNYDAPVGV
As to the kind of experiment: DGAT1 inhibitory effect test (microsome fraction, [14C]-oleoyl-CoA, triglyceride radioactivity by TLC). It counts as biochemical. As to conditions: 0.5 h; concentration of the test compound 0.1 μg/ml; mouse DGAT1 microsomes, 23° C., 30 minutes; read-out: Inhibitory ratio. The gist of the method: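 Inhibition was scored from radiolabelled triglyceride separated by TLC, relative to vehicle and net of a 0-min background. The reaction ran for 30 min at room temperature (23 °C) in Tris-HCl pH 8.0 with MgCl2, BSA and Triton X-100. Substrates were 30 μM [14C]-oleoyl-CoA and 0.5 mM dioleoylglycerol, with mouse DGAT1 microsomes from baculovirus-infected insect cells as enzyme.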

Bounds are passed on as bounds.

As for `COc1ccc(F)cc1NC(=O)Nc1ccc(N2CCN(C(=O)Nc3ncccc3C)CC2)nc1` [Example 298, 4-{5-[3-(5-fluoro-2-methoxy-phenyl)-ureido]-pyridin-2-yl}-piperazine-1-carboxylic acid (3-methyl-pyridin-2-yl)-amide], the melting point was 196 to 198 °C. In addition, the inhibition at 0.1 µg/mL at mouse DGAT1 was no less than 50%.

`CCOc1ccc(Cl)cc1NC(=O)Nc1ccc(N2CCN(C(=O)Nc3ncccc3C)CC2)nc1` [Example 299, 4-{5-[3-(5-chloro-2-ethoxy-phenyl)-ureido]-pyridin-2-yl}-piperazine-1-carboxylic acid (3-methyl-pyridin-2-yl)-amide] came in with a melting point of 214 to 215 °C. Further, the inhibition at 0.1 µg/mL at mouse DGAT1 is no less than 50%.

The compound `CCOc1ccc(F)cc1NC(=O)Nc1ccc(N2CCN(C(=O)Nc3ncccc3C)CC2)nc1` [Example 300, 4-{5-[3-(2-ethoxy-5-fluoro-phenyl)-ureido]-pyridin-2-yl}-piperazine-1-carboxylic acid (3-methyl-pyridin-2-yl)-amide] had a melting point of 180 to 185 °C. Moreover, the inhibition at 0.1 µg/mL at mouse DGAT1 is no less than 50%.

As to `COc1ccc(C)cc1NC(=O)Nc1ccc(N2CCN(C(=O)Nc3ncccc3C)CC2)nc1` [Example 301, 4-{5-[3-(2-methoxy-5-methyl-phenyl)-ureido]-pyridin-2-yl}-piperazine-1-carboxylic acid (3-methyl-pyridin-2-yl)-amide], the melting point fell in the range of 216 to 218 °C. Besides, on mouse DGAT1, the inhibition at 0.1 µg/mL was no less than 50%.

Take `Cc1cccnc1NC(=O)N1CCN(c2ccc(NC(=O)Nc3ccccc3F)cn2)CC1` [Example 302, 4-{5-[3-(2-fluoro-phenyl)-ureido]-pyridin-2-yl}-piperazine-1-carboxylic acid (3-methyl-pyridin-2-yl)-amide]: the melting point fell in the range of 213 to 215 °C. Besides, the inhibition at 0.1 µg/mL on mouse DGAT1 was no less than 50%.

Regarding `COc1cccc(NC(=O)Nc2ccc(N3CCN(C(=O)Nc4ncccc4C)CC3)cc2)c1` [Example 303, 4-{4-[3-(3-methoxy-phenyl)-ureido]-phenyl}-piperazine-1-carboxylic acid (3-methyl-pyridin-2-yl)-amide], the melting point was 191 to 193 °C. Further, on mouse DGAT1, the inhibition at 0.1 µg/mL was no less than 50%.

`CCOc1ccccc1NC(=O)Nc1ccc(N2CCN(C(=O)Nc3ncccc3C)CC2)cc1` [Example 304, 4-{4-[3-(2-ethoxy-phenyl)-ureido]-phenyl}-piperazine-1-carboxylic acid (3-methyl-pyridin-2-yl)-amide] returned a melting point of 110 to 112 °C. Besides, the inhibition at 0.1 µg/mL at mouse DGAT1 was no less than 50%.

With `CCOc1cccc(NC(=O)Nc2ccc(N3CCN(C(=O)Nc4ncccc4C)CC3)cc2)c1` [Example 305, 4-{4-[3-(3-ethoxy-phenyl)-ureido]-phenyl}-piperazine-1-carboxylic acid (3-methyl-pyridin-2-yl)-amide], the melting point was in the range of 171 to 173 °C. Besides, the inhibition at 0.1 µg/mL at mouse DGAT1 was no less than 50%.

`COc1cc(NC(=O)Nc2ccc(N3CCN(C(=O)Nc4ncccc4C)CC3)cc2)cc(OC)c1` [Example 306, 4-{4-[3-(3,5-dimethoxy-phenyl)-ureido]-phenyl}-piperazine-1-carboxylic acid (3-methyl-pyridin-2-yl)-amide] registered a melting point of 188 to 190 °C. At mouse DGAT1, the inhibition at 0.1 µg/mL was no less than 50%.

Regarding `CCOc1ccc(C)cc1NC(=O)Nc1ccc(N2CCN(C(=O)Nc3ncccc3C)CC2)nc1` [Example 307, 4-{5-[3-(2-ethoxy-5-methyl-phenyl)-ureido]-pyridin-2-yl}-piperazine-1-carboxylic acid (3-methyl-pyridin-2-yl)-amide], the melting point lay within 198 to 200 °C. In addition, the inhibition at 0.1 µg/mL at mouse DGAT1 is no less than 50%.

As to `COc1ccc(Cl)cc1NC(=O)Nc1ccc(N2CCN(C(=O)Nc3ncccc3C)CC2)nc1` [Example 308, 4-{5-[3-(5-chloro-2-methoxy-phenyl)-ureido]-pyridin-2-yl}-piperazine-1-carboxylic acid (3-methyl-pyridin-2-yl)-amide], the melting point was in the range of 203 to 205 °C. On mouse DGAT1, the inhibition at 0.1 µg/mL is no less than 50%.

As for `COc1ccccc1NC(=O)Nc1ccc(N2CCN(C(=O)Nc3ncccc3C)CC2)cc1` [Example 309, 4-{4-[3-(2-methoxy-phenyl)-ureido]-phenyl}-piperazine-1-carboxylic acid (3-methyl-pyridin-2-yl)-amide], the melting point lay in the range of 207 to 209 °C. In addition, the inhibition at 0.1 µg/mL at mouse DGAT1 was no less than 50%.

For the compound `COc1ccc(Cl)cc1NC(=O)Nc1ccc(N2CCN(C(=O)Nc3ncccc3C)CC2)cc1` [Example 310, 4-{4-[3-(5-chloro-2-methoxy-phenyl)-ureido]-phenyl}-piperazine-1-carboxylic acid (3-methyl-pyridin-2-yl)-amide], the melting point fell in the range of 163 to 165 °C. On mouse DGAT1, the inhibition at 0.1 µg/mL is no less than 50%.

`CCOc1ccc(C)cc1NC(=O)Nc1ccc(N2CCN(C(=O)Nc3ncccc3C)CC2)cc1` [Example 311, 4-{4-[3-(2-ethoxy-5-methyl-phenyl)-ureido]-phenyl}-piperazine-1-carboxylic acid (3-methyl-pyridin-2-yl)-amide] yielded a melting point of 206 to 208 °C. Also, the inhibition at 0.1 µg/mL at mouse DGAT1 was no less than 50%.

`COc1ccc(C)cc1NC(=O)Nc1ccc(N2CCN(C(=O)Nc3ncccc3C)CC2)c(F)c1` [Example 312, 4-{2-fluoro-4-[3-(2-methoxy-5-methyl-phenyl)-ureido]-phenyl}-piperazine-1-carboxylic acid (3-methyl-pyridin-2-yl)-amide] returned a melting point of 188 to 190 °C. In addition, at mouse DGAT1, the inhibition at 0.1 µg/mL was no less than 50%.

On to `COc1ccc(C)cc1NC(=O)Nc1ccc(N2CCN(C(=O)Nc3ncccc3C)CC2)c(C)c1` [Example 313, 4-{4-[3-(2-methoxy-5-methyl-phenyl)-ureido]-2-methyl-phenyl}-piperazine-1-carboxylic acid (3-methyl-pyridin-2-yl)-amide], for which the melting point lay in the range of 144 to 146 °C. In addition, the inhibition at 0.1 µg/mL on mouse DGAT1 is no less than 50%.

As to `COc1ccc(C)cc1NC(=O)Nc1ccc(C2=CCN(C(=O)Nc3ncccc3C)CC2)cc1` [Example 324, 4-{4-[3-(2-methoxy-5-methyl-phenyl)-ureido]-phenyl}-3,6-dihydro-2H-pyridine-1-carboxylic acid (3-methyl-pyridin-2-yl)-amide], the melting point was 195 to 198 °C. In addition, on mouse DGAT1, the inhibition at 0.1 µg/mL was no less than 50%.

As to `COc1cc(NC(=O)Nc2ccc(N3CCN(C(=O)Nc4ncc(F)cc4F)CC3)cc2)cc(OC)c1` [Example 341, 4-{4-[3-(3,5-dimethoxy-phenyl)-ureido]-phenyl}-piperazine-1-carboxylic acid (3,5-difluoro-pyridin-2-yl)-amide], the melting point was 204 to 205 °C. Further, on mouse DGAT1, the inhibition at 0.1 µg/mL is no less than 50%.

Compound `O=C(Nc1ccc(N2CCN(C(=O)C(O)c3ccccc3Cl)CC2)nc1)Nc1ccccc1F` (stereo not shown) [Example 377, 1-(6-{4-[2-(2-chloro-phenyl)-2-hydroxy-acetyl]-piperazin-1-yl}-pyridin-3-yl)-3-(2-fluoro-phenyl)-urea] showed a melting point of 127 to 128 °C. The inhibition at 0.1 µg/mL on mouse DGAT1 is no less than 50%.

The compound `COc1ccc(C)cc1NC(=O)Nc1ccc(N2CCN(C(=O)C(O)c3ccccc3Cl)CC2)cc1` (stereo not shown) [Example 378, 1-(4-{4-[2-(2-chloro-phenyl)-2-hydroxy-acetyl]-piperazin-1-yl}-phenyl)-3-(2-methoxy-5-methyl-phenyl)-urea] displayed a melting point of 118 to 120 °C. Besides, the inhibition at 0.1 µg/mL at mouse DGAT1 is no less than 50%.
